Laboratory results: patent US20240158446A1, “CYCLIC COMPOUND HAVING SELECTIVE INHIBITORY ACTION ON KRAS OVER HRAS AND NRAS” (CHUGAI SEIYAKU KABUSHIKI KAISHA, priority 2021, published 2024)
Where two headings read alike, the source gives them in different places. Where a SMILES comes first, the peptide text is derived from it. Bridges are numbered along the chain shown (N, C = ends). [ ]: non-standard residue; d: D form. The star is where a group is joined. hPhe(3-Cl-4-CF3) = N[C@@H](CCc1ccc(C(F)(F)F)c(Cl)c1)C(=O)O; NPrPhe(4-CF3) = CCCN[C@@H](Cc1ccc(C(F)(F)F)cc1)C(=O)O; NMeGly(cPent) = CN[C@H](C(=O)O)C1CCCC1; Pro(4,4-Me2) = CC1(C)CN[C@H](C(=O)O)C1; NMeD = CN[C@@H](CC(=O)O)C(=O)O; NMeL = CN[C@@H](CC(C)C)C(=O)O; Morpholide = C1CN(*)CCO1; Ac5c = NC1(C(=O)O)CCCC1; Sar = CNCC(=O)O

Tests used:
[1] = molecular target: GDP-bound NRAS wild-type protein (Homo sapiens, UniProt P01111); assay: Binding to NRAS by surface plasmon resonance (SPR), Single Cycle Kinetics; conditions: for NRAS/KRAS (ratio of KD value with respect to GDP-bound NRAS wild-type protein to KD value with respect to KRAS): SPR KD ratio NRAS/KRAS, class symbols
Chain of GDP-bound NRAS wild-type protein (P01111 whole entry): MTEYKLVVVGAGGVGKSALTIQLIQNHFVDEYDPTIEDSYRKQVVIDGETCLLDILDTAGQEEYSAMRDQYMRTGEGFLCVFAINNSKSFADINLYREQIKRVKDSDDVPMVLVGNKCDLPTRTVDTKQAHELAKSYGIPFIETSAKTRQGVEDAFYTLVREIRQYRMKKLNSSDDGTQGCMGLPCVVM

[2] = molecular target: GDP-bound HRAS wild-type protein (Homo sapiens, UniProt P01112); assay: Binding to HRAS by surface plasmon resonance (SPR), Single Cycle Kinetics; conditions: for HRAS/KRAS (ratio of KD value with respect to GDP-bound HRAS wild-type protein to KD value with respect to KRAS): SPR KD ratio HRAS/KRAS, class symbols
Chain of GDP-bound HRAS wild-type protein (P01112 whole entry): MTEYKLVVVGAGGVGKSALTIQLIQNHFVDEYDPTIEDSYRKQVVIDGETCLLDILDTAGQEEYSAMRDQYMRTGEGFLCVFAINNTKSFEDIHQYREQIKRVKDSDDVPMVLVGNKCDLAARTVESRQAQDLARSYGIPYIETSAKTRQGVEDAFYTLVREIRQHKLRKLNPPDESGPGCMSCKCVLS

[3] = molecular target: GDP-bound KRAS wild-type protein (Homo sapiens, UniProt P01116); assay: Binding to KRAS by surface plasmon resonance (SPR), Single Cycle Kinetics; conditions: GDP-bound KRAS wild-type protein, read-out: KRAS KD
Chain of GDP-bound KRAS wild-type protein (P01116 whole entry): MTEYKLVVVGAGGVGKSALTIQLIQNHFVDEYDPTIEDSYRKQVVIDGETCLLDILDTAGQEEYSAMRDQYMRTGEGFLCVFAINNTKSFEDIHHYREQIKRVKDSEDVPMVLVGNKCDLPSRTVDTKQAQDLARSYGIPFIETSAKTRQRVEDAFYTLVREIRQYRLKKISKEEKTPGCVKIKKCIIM

[4] = SPR Single Cycle Kinetics, 1:1 binding model
[5] = SPR, GDP-bound NRAS wild-type protein vs GDP-bound KRAS wild-type protein
[6] = SPR, GDP-bound HRAS wild-type protein vs GDP-bound KRAS wild-type protein

| SMILES | Kd [3, 4] [nM] | Kd ([3]; SPR, Single Cycle Kinetics) [nM] | NRAS/KRAS (ratio of KD value with respect to GDP-bound NRAS wild-type protein to KD value with respect to KRAS) [1] | HRAS/KRAS (ratio of KD value with respect to GDP-bound HRAS wild-type protein to KD value with respect to KRAS) [2] | NRAS/KRAS (ratio of KD value for NRAS to KD value for KRAS) [1, 5] | HRAS/KRAS (ratio of KD value for HRAS to KD value for KRAS) [2, 6] | NRAS/KRAS (ratio of KD value with respect to NRAS to KD value with respect to KRAS) [1, 5] | HRAS/KRAS (ratio of KD value with respect to HRAS to KD value with respect to KRAS) [2, 6] |
| --- | --- | --- | --- | --- | --- | --- | --- | --- |
| CCO[C@@H]1C[C@H]2C(=O)NC3(CCC3)C(=O)N(C)[C@@H](C3CCCC3)C(=O)N(C)[C@H](C(=O)N3CCOCC3)CC(=O)N(C)[C@@H](Cc3cccc(Cl)c3)C(=O)N[C@@H]([C@@H](C)CC)C(=O)N(C)CC(=O)N(C)[C@H]3CCCCCN(C3=O)[C@@H](Cc3ccc(C(F)(F)F)cc3)C(=O)N(C)CC(=O)N[C@@H](CCc3cc(F)c(C(F)(F)F)c(F)c3)C(=O)N2C1 [PP0857] |  | 1.4 |  |  | B (a compound having 3 or more and less than 10 is denoted as B) | B (a compound having 3 or more and less than 10 is denoted as B) |  |  |
| CCCN1C(=O)CN(C)C(=O)CNC(=O)[C@H]([C@@H](C)CC)NC(=O)[C@H](CC(C)C)N(C)C(=O)C[C@@H](C(=O)N2CCOCC2)N(C)C(=O)[C@H](C2CCCC2)N(C)C(=O)C2(CCCC2)NC(=O)[C@@H]2CC(C)(C)CN2C(=O)[C@H](CCc2ccc(C(F)(F)F)c(Cl)c2)NC(=O)CN(C)C(=O)[C@@H]1Cc1ccc(C(F)(F)F)cc1 [PP0448] ([NMeL]IG[Sar][NPrPhe(4-CF3)][Sar][hPhe(3-Cl-4-CF3)][Pro(4,4-Me2)][Ac5c][NMeGly(cPent)][NMeD]-Morpholide; lactam N-11) | 0.15 |  |  |  |  |  | B (a compound having 3 or more and less than 10 is denoted as B) | C (A compound having a KD ratio of 0.1 or more and less than 3 is denoted as C) |
| CC[C@H](C)[C@@H]1NC(=O)[C@H](COC)N(C)C(=O)C[C@@H](C(=O)N2CCOCC2)N(C)C(=O)[C@H](C2CCCC2)N(C)C(=O)C2(CCC2)NC(=O)[C@@H]2C[C@@H](OC)CN2C(=O)[C@H](CCc2cc(F)c(C(F)(F)F)c(F)c2)NC(=O)CN(C)C(=O)[C@H](Cc2ccc(C(F)(F)F)cc2)N2CCCCC[C@@H](C2=O)N(C)C(=O)CN(C)C1=O [PP0837] |  | 0.19 |  |  | B (a compound having 3 or more and less than 10 is denoted as B) | B (a compound having 3 or more and less than 10 is denoted as B) |  |  |

The next lines start with results.

| Kd [3, 4] [nM] | Kd ([3]; SPR, Single Cycle Kinetics) [nM] | SMILES | NRAS/KRAS (ratio of KD value with respect to GDP-bound NRAS wild-type protein to KD value with respect to KRAS) [1] | HRAS/KRAS (ratio of KD value with respect to GDP-bound HRAS wild-type protein to KD value with respect to KRAS) [2] | NRAS/KRAS (ratio of KD value for NRAS to KD value for KRAS) [1, 5] | HRAS/KRAS (ratio of KD value for HRAS to KD value for KRAS) [2, 6] | NRAS/KRAS (ratio of KD value with respect to NRAS to KD value with respect to KRAS) [1, 5] | HRAS/KRAS (ratio of KD value with respect to HRAS to KD value with respect to KRAS) [2, 6] |
| --- | --- | --- | --- | --- | --- | --- | --- | --- |
| 0.18 |  | CCO[C@@H]1C[C@H]2C(=O)NC3(CC(C)(C)C3)C(=O)N(C)[C@@H](C3CCCC3)C(=O)N(C)[C@H](C(=O)N(C)C)CC(=O)N(C)[C@@H](CC(F)(F)F)C(=O)N[C@@H]([C@@H](C)CC)C(=O)N(C)CC(=O)N(C)[C@H]3C/C=C\CCN(C3=O)[C@@H](Cc3ccc(C(F)(F)F)cc3)C(=O)N(C)CC(=O)N[C@@H](CCc3ccc(Cl)c(Cl)c3)C(=O)N2C1 [PP2832] | A (a compound having 10 or more and less than 20 is denoted as A) | A (a compound having 10 or more and less than 20 is denoted as A) |  |  |  |  |
|  | 0.2 | C=CCN1CC(=O)N(C)[C@H]2C/C=C\CCN(C2=O)[C@@H](Cc2ccc(C)cc2)C(=O)N(C)CC(=O)N[C@@H](CCc2ccc(C(F)(F)F)c(OC)c2)C(=O)N2C[C@H](OCC)C[C@H]2C(=O)NC2(CC(C)(C)C2)C(=O)N(C)[C@@H](C2CCCC2)C(=O)N(C)[C@H](C(=O)N(C)C)CC(=O)N(C)[C@@H](CCC)C(=O)N[C@@H]([C@@H](C)CC)C1=O [PP2098] |  |  | A (a compound having 10 or more and less than 20 is denoted as A) | A (a compound having 10 or more and less than 20 is denoted as A) |  |  |
| 0.85 |  | CCC[C@H]1C(=O)N[C@@H]([C@@H](C)CC)C(=O)N(C)CC(=O)N(C)[C@H]2C/C=C\CCN(C2=O)[C@@H](Cc2ccc(C(F)(F)F)cc2)C(=O)N(C)CC(=O)N[C@@H](CCc2ccc(C(F)(F)F)c(Cl)c2)C(=O)N2CCCCC[C@H]2C(=O)NC2(CC(C)(C)C2)C(=O)N(C)[C@@H](C(CC)CC)C(=O)N(C)[C@H](C(=O)N(C)C)CC(=O)N1C [PP2964] | AA (a compound having 20 or more is denoted as AA) | A (a compound having 10 or more and less than 20 is denoted as A) |  |  |  |  |
